Converted amounts (≈) assume the structure as drawn.
Legend:
Oryctolagus cuniculus [1] = species: Oryctolagus cuniculus
Description: Tested for ex vivo distribution in ciliary process after topical administration in albino rabbits (Ocular tissue concentration after 1 hr)

Oryctolagus cuniculus [2] = species: Oryctolagus cuniculus; remark: listed apart in the source
Description: In vitro transcorneal accession rate in rabbit corneal intact epithelium

Oryctolagus cuniculus [3] = species: Oryctolagus cuniculus; remark: listed apart in the source
Description: In vitro transcorneal accession rate in rabbit corneal denuded epithelium

[4] = Solubility in pH 7.4 Buffer, at 25 Degree C; assay type: physicochemical
Carbonic anhydrase 4 = biological target: T1, Carbonic anhydrase 4 (Bos taurus, UniProt Q95323)
T1 sequence (Q95323 whole entry): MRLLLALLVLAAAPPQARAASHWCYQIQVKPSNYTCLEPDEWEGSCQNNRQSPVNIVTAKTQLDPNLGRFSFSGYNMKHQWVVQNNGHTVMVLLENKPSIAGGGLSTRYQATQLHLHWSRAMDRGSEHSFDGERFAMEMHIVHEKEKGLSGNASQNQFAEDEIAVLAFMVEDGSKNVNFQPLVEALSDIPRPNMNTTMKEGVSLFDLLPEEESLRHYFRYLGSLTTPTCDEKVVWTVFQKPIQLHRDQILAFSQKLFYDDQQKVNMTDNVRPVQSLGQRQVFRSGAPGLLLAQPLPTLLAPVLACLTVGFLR
Description: Inhibition of bovine carbonic anhydrase IV (CA4) from bovine lung microsomes

Oryctolagus cuniculus [5] = species: Oryctolagus cuniculus; remark: listed apart in the source
Description: Tested for ex vivo distribution in aqueous humor after topical administration in albino rabbits (Ocular tissue concentration after 1 hr)

[6] = octanol/water
Description: Partition coefficient (logD) (chloroform/buffer)

Oryctolagus cuniculus [7] = species: Oryctolagus cuniculus; remark: listed apart in the source
Description: Tested for ex vivo distribution in cornea after topical administration in albino rabbits (Ocular tissue concentration after 2 hr)

Oryctolagus cuniculus [8] = species: Oryctolagus cuniculus; remark: listed apart in the source
Description: Tested for ex vivo distribution in ciliary process after topical administration in albino rabbits (Ocular tissue concentration after 2 hr)

Oryctolagus cuniculus [9] = species: Oryctolagus cuniculus; remark: listed apart in the source
Description: Tested for ex vivo distribution in aqueous humor after topical administration in albino rabbits (Ocular tissue concentration after 2 hr)

Carbonic anhydrase 1 [10] = biological target: T2, Carbonic anhydrase 1 (Homo sapiens, UniProt P00915)
T2 sequence (P00915 whole entry): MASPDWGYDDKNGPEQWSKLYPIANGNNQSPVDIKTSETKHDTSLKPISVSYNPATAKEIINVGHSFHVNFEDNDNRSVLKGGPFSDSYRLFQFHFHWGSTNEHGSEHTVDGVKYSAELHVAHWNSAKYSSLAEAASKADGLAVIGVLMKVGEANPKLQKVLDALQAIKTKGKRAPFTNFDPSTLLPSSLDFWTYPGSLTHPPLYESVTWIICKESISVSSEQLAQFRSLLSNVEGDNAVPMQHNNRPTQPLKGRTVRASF
Description: Inhibition of human recombinant carbonic anhydrase I (CA1)

Oryctolagus cuniculus [11] = species: Oryctolagus cuniculus; remark: listed apart in the source
Description: Tested for ex vivo distribution in cornea after topical administration in albino rabbits (Ocular tissue concentration after 1 hr)

Oryctolagus cuniculus [12] = experiment: Tested for in vivo IOP-lowering of glaucomatous rabbits after topical administration at the specified interval( 30 min) at pH 6.5; assay type: functional
Oryctolagus cuniculus [13] = species: Oryctolagus cuniculus; remark: listed apart in the source
Description: Tested for in vivo IOP-lowering of normotensive albino rabbits after topical administration at the specified interval (60 min) at pH 6.5

Oryctolagus cuniculus [14] = experiment: Tested for in vivo IOP-lowering of glaucomatous rabbits after topical administration at the specified interval( 60 min) at pH 6.5; assay type: functional
Oryctolagus cuniculus [15] = species: Oryctolagus cuniculus; remark: listed apart in the source
Description: Tested for in vivo IOP-lowering of normotensive albino rabbits after topical administration at the specified interval (30 min) at pH 6.5

Oryctolagus cuniculus [16] = experiment: Tested for in vivo IOP-lowering of glaucomatous rabbits after topical administration at the specified interval( 90 min) at pH 6.5; assay type: functional
Oryctolagus cuniculus [17] = species: Oryctolagus cuniculus; remark: listed apart in the source
Description: Tested for in vivo IOP-lowering of normotensive albino rabbits after topical administration at the specified interval (90 min) at pH 6.5

Carbonic anhydrase 1 [18] = biological target: T2, Carbonic anhydrase 1; experiment: Tested for inhibition of human (cloned) isozyme Carbonic anhydrase I
Carbonic anhydrase 1 [19] = biological target: T2, Carbonic anhydrase 1; experiment: Tested for inhibition of human (cloned) isoenzyme carbonic anhydrase 1.
Carbonic anhydrase 1 [20] = biological target: T2, Carbonic anhydrase 1; experiment: 99 Tested for inhibition of human (cloned) isozyme Carbonic anhydrase I

SMILES | solubility [4] [mM] | Ki (Carbonic anhydrase 4) [nM] | logD [6] | Ki (Carbonic anhydrase 1 [10]) [nM] | Ki (Carbonic anhydrase 1 [18]) [nM] | Drug concentration (Oryctolagus cuniculus [1]) [µM] | Kin (Oryctolagus cuniculus [2]) [h⁻¹] | Kin (Oryctolagus cuniculus [3]) [h⁻¹] | Drug concentration (Oryctolagus cuniculus [5]) [µM] | Drug concentration (Oryctolagus cuniculus [7]) [µM] | Drug concentration (Oryctolagus cuniculus [8]) [µM] | Drug concentration (Oryctolagus cuniculus [9]) [µM] | Drug concentration (Oryctolagus cuniculus [11]) [µM] | also measured
NS(=O)(=O)c1nnc(NS(=O)(=O)c2c(F)c(F)c(F)c(F)c2F)s1 | 62 (≈ 25.4 mg/mL) | 6 | 2.113 | 210 |  | 45 | 4500 | 8700 | 324 | 69 | 12.5 | 42 | 176 | 
Cn1nc(S(N)(=O)=O)sc1=NS(=O)(=O)c1c(F)c(F)c(F)c(F)c1F | 66 (≈ 28 mg/mL) | 9 | 2.347 | 250 |  | 38 | 4900 | 8800 | 296 | 36 | 7.1 | 39 | 150 | Delta IOP (Oryctolagus cuniculus [12]): 7.1 mmHg; Delta IOP (Oryctolagus cuniculus [13]): 11.3 mmHg; Delta IOP (Oryctolagus cuniculus [14]): 14.2 mmHg; Delta IOP (Oryctolagus cuniculus [15]): 4.7 mmHg; Delta IOP (Oryctolagus cuniculus [16]): 16.9 mmHg; Delta IOP (Oryctolagus cuniculus [17]): 9.1 mmHg
NS(=O)(=O)c1ccccc1NC(=O)c1c(F)c(F)c(F)c(F)c1F |  | 810 |  |  | 1560 |  |  |  |  |  |  |  |  | 

Continued, in another order:

solubility [4] [mM] | Ki (Carbonic anhydrase 4) [nM] | logD [6] | Ki (Carbonic anhydrase 1 [10]) [nM] | Ki (Carbonic anhydrase 1 [18]) [nM] | SMILES | Drug concentration (Oryctolagus cuniculus [1]) [µM] | Kin (Oryctolagus cuniculus [2]) [h⁻¹] | Kin (Oryctolagus cuniculus [3]) [h⁻¹] | Drug concentration (Oryctolagus cuniculus [5]) [µM] | Drug concentration (Oryctolagus cuniculus [7]) [µM] | Drug concentration (Oryctolagus cuniculus [8]) [µM] | Drug concentration (Oryctolagus cuniculus [9]) [µM] | Drug concentration (Oryctolagus cuniculus [11]) [µM] | also measured
 | 650 |  |  | 1400 | NS(=O)(=O)c1cccc(NC(=O)c2c(F)c(F)c(F)c(F)c2F)c1 |  |  |  |  |  |  |  |  | 
 | 860 |  |  |  | NS(=O)(=O)c1ccc(NNS(=O)(=O)C(F)(F)C(F)(F)C(F)(F)C(F)(F)C(F)(F)C(F)(F)C(F)(F)C(F)(F)F)cc1 |  |  |  |  |  |  |  |  | Ki (Carbonic anhydrase 1 [19]): 1680 nM
 | 600 |  |  |  | NS(=O)(=O)c1ccc(NC(=O)c2c(F)c(F)c(F)c(F)c2F)cc1 |  |  |  |  |  |  |  |  | Ki (Carbonic anhydrase 1 [20]): 950 nM

Source: ChEMBL document CHEMBL1133531, “Carbonic anhydrase inhibitors: perfluoroalkyl/aryl-substituted derivatives of aromatic/heterocyclic sulfonamides as topical intraocular pressure-lowering agents with prolonged duration of action” (J Med Chem, 2000)
